# Assay results published in patent US20220087960A1, “Oral Pharmaceutical Immediate Release Composition” (Aardvark Therapeutics Inc., priority 2020, published 2022).
# Legend:
# [1] = test system: male SD rats; experiment: Single oral dose food intake study, 24-hour observational period (Example 6, first in vivo study); design: species or system rat
# Procedure: This example compares efficacy of DA versus DB in food inhibition and body weight control. As a background, according to Avau et al., Sci. Rep. […] In our first in vivo study, 45 male SD rats (purchased from Envigo at 8-10 weeks of age) were divided into three groups (15 in each group), which were administered a single oral dose of vehicle (distilled water), 26.8 mg/kg of DB, or 23.1 mg/kg of DA respectively, with a 24-hour observational period, to compare the efficacy of DB versus DA in reducing food intake. Table 4. Mean cumulative food intake during 24-h observational period
# [2] = test system: male C57BL/6N DIO mice; experiment: 56-day BID treatment, food consumption and body weight in DIO mice (Example 6, second in vivo study); design: species or system mouse
# Procedure: In a second in vivo study, 45 male C57BL/6N DIO mice (purchased from Envigo at 18 weeks of age, fed with high-fat diet) were divided into three groups (15 in each group), which were orally administered vehicle (distilled water), 26.8 mg/kg of DB, or 23.1 mg/kg of DA respectively, twice daily (BID), with a 56-day treatment period to compare the efficacy of DB versus DA in food intake reduction and body weight control. Briefly, once weekly, the food weight for each cage was recorded at 0 hour and then 24 hours later, permitting calculation of food consumption for that 24-hour interval. In addition, starting from Day 0, the mice were weighed three times weekly (every 2-3 days).
# [3] = Maximum tolerated dose / LD50 study, single oral gavage, 14-day observational period (Example 7); conditions: both, Sprague Dawley, rat, in vivo
# Procedure: (§1) The drugs were administered to Sprague Dawley rats with a 14-day observational period. Twenty-four Male Sprague Dawley (SD) rats and 24 female SD rats were purchased from Envigo at 8-10 weeks of age. The DA group had four dose levels (120, 360, 1000, and 2000 mg/kg, single administration by oral gavage), 3 rats per sex, 6 animals in total per dose level; and the DB group: four dose levels (120, 360, 1000, and 2000 mg/kg, single administration by oral gavage), 3 rats per sex, 6 animals in total per dose level. The estimated median lethal dose (LD50) was determined by a nonlinear regression [model: Y=100/(1+10^(LogEC50-X)), Hill slope=1.0) to calculate LD50.
# [4] = test system: Sprague Dawley rats; experiment: in vivo; conditions: rat, po; for Mortality rate: both, 14 day
# Procedure: as §1
# [5] = test system: human TAS2Rs (TAS2R 4, 8, 10, 13, 39, 43, 46, and 47); conditions: cited from earlier work
# [6] = test system: normal C57BL/6 mice; conditions: oral 60 μmol/kg (26.8 mg/kg); cited from earlier work
# [7] = test system: C57BL/6 DIO mice; conditions: 60 μmol/kg (26.8 mg/kg) once daily, 28-day period; cited from earlier work
# [8] = test system: rodent obesity models; conditions: cited from earlier work
smiles,measurement,setting,value
"CC[N+](CC)(CC(=O)Nc1c(C)cccc1C)Cc1ccccc1.O=C([O-])c1ccccc1 [DB, benzyl-[2-(2,6-dimethylanilino)-2-oxoethyl]-diethylazanium benzoate]",Mean cumulative food intake 0-2 h,"[1]; single oral dose (DA 23.1 mg/kg, DB 26.8 mg/kg), 0-2 h, N = 15",4.8 gram
same,Mean cumulative food intake 0-4 h,"[1]; single oral dose (DA 23.1 mg/kg, DB 26.8 mg/kg), 0-4 h, N = 15",7.7 gram
same,Mean cumulative food intake 0-6 h,"[1]; single oral dose (DA 23.1 mg/kg, DB 26.8 mg/kg), 0-6 h, N = 15",10.9 gram
same,Mean cumulative food intake 0-8 h,"[1]; single oral dose (DA 23.1 mg/kg, DB 26.8 mg/kg), 0-8 h, N = 15",13.8 gram
same,Mean cumulative food intake 0-24 h,"[1]; single oral dose (DA 23.1 mg/kg, DB 26.8 mg/kg), 0-24 h, N = 15",20.6 gram
same,cumulative food intake as compared with vehicle,"[1]; single oral dose, all indicated time intervals",reduced cumulative food intake during all the indicated time intervals as compared with vehicle
same,body weight gain as compared to vehicle treatment,"[2]; DIO mice on high-fat diet, 26.8 mg/kg DB or 23.1 mg/kg DA BID",less body weight gain as compared to vehicle treatment
same,"Mean food consumption per animal for 24-h interval, Day 0","[2]; DIO mice, BID oral (DA 23.1 mg/kg, DB 26.8 mg/kg), Day 0",2.5 gram
same,"Mean food consumption per animal for 24-h interval, Day 7","[2]; DIO mice, BID oral (DA 23.1 mg/kg, DB 26.8 mg/kg), Day 7",1.8 gram
same,"Mean food consumption per animal for 24-h interval, Day 14","[2]; DIO mice, BID oral (DA 23.1 mg/kg, DB 26.8 mg/kg), Day 14",2.6 gram
same,"Mean food consumption per animal for 24-h interval, Day 21","[2]; DIO mice, BID oral (DA 23.1 mg/kg, DB 26.8 mg/kg), Day 21",2.9 gram
same,"Mean food consumption per animal for 24-h interval, Day 28","[2]; DIO mice, BID oral (DA 23.1 mg/kg, DB 26.8 mg/kg), Day 28",2.5 gram
same,"Mean food consumption per animal for 24-h interval, Day 35","[2]; DIO mice, BID oral (DA 23.1 mg/kg, DB 26.8 mg/kg), Day 35",2.5 gram
same,"Mean food consumption per animal for 24-h interval, Day 42","[2]; DIO mice, BID oral (DA 23.1 mg/kg, DB 26.8 mg/kg), Day 42",2.0 gram
same,"Mean food consumption per animal for 24-h interval, Day 49","[2]; DIO mice, BID oral (DA 23.1 mg/kg, DB 26.8 mg/kg), Day 49",2.4 gram
same,"Mean food consumption per animal for 24-h interval, Day 56","[2]; DIO mice, BID oral (DA 23.1 mg/kg, DB 26.8 mg/kg), Day 56",2.5 gram
same,"Mean normalized body weight (% of baseline), study day 0","[2]; DIO mice, BID oral (DA 23.1 mg/kg, DB 26.8 mg/kg), day 0",100.0 % of baseline
same,"Mean normalized body weight (% of baseline), study day 4","[2]; DIO mice, BID oral (DA 23.1 mg/kg, DB 26.8 mg/kg), day 4",100.5 % of baseline
same,"Mean normalized body weight (% of baseline), study day 7","[2]; DIO mice, BID oral (DA 23.1 mg/kg, DB 26.8 mg/kg), day 7",99.7 % of baseline
same,"Mean normalized body weight (% of baseline), study day 9","[2]; DIO mice, BID oral (DA 23.1 mg/kg, DB 26.8 mg/kg), day 9",99.4 % of baseline
same,"Mean normalized body weight (% of baseline), study day 11","[2]; DIO mice, BID oral (DA 23.1 mg/kg, DB 26.8 mg/kg), day 11",99.0 % of baseline
same,"Mean normalized body weight (% of baseline), study day 14","[2]; DIO mice, BID oral (DA 23.1 mg/kg, DB 26.8 mg/kg), day 14",99.3 % of baseline
same,"Mean normalized body weight (% of baseline), study day 16","[2]; DIO mice, BID oral (DA 23.1 mg/kg, DB 26.8 mg/kg), day 16",98.0 % of baseline
same,"Mean normalized body weight (% of baseline), study day 18","[2]; DIO mice, BID oral (DA 23.1 mg/kg, DB 26.8 mg/kg), day 18",97.9 % of baseline
same,"Mean normalized body weight (% of baseline), study day 21","[2]; DIO mice, BID oral (DA 23.1 mg/kg, DB 26.8 mg/kg), day 21",99.5 % of baseline
same,"Mean normalized body weight (% of baseline), study day 23","[2]; DIO mice, BID oral (DA 23.1 mg/kg, DB 26.8 mg/kg), day 23",100.5 % of baseline
same,"Mean normalized body weight (% of baseline), study day 25","[2]; DIO mice, BID oral (DA 23.1 mg/kg, DB 26.8 mg/kg), day 25",100.3 % of baseline
same,"Mean normalized body weight (% of baseline), study day 28","[2]; DIO mice, BID oral (DA 23.1 mg/kg, DB 26.8 mg/kg), day 28",100.2 % of baseline
same,"Mean normalized body weight (% of baseline), study day 30","[2]; DIO mice, BID oral (DA 23.1 mg/kg, DB 26.8 mg/kg), day 30",100.5 % of baseline
same,"Mean normalized body weight (% of baseline), study day 32","[2]; DIO mice, BID oral (DA 23.1 mg/kg, DB 26.8 mg/kg), day 32",102.8 % of baseline
same,"Mean normalized body weight (% of baseline), study day 34","[2]; DIO mice, BID oral (DA 23.1 mg/kg, DB 26.8 mg/kg), day 34",103.6 % of baseline
same,"Mean normalized body weight (% of baseline), study day 36","[2]; DIO mice, BID oral (DA 23.1 mg/kg, DB 26.8 mg/kg), day 36",104.1 % of baseline
same,"Mean normalized body weight (% of baseline), study day 39","[2]; DIO mice, BID oral (DA 23.1 mg/kg, DB 26.8 mg/kg), day 39",104.7 % of baseline
same,"Mean normalized body weight (% of baseline), study day 41","[2]; DIO mice, BID oral (DA 23.1 mg/kg, DB 26.8 mg/kg), day 41",105.3 % of baseline
same,"Mean normalized body weight (% of baseline), study day 46","[2]; DIO mice, BID oral (DA 23.1 mg/kg, DB 26.8 mg/kg), day 46",106.0 % of baseline
same,"Mean normalized body weight (% of baseline), study day 49","[2]; DIO mice, BID oral (DA 23.1 mg/kg, DB 26.8 mg/kg), day 49",107.8 % of baseline
same,"Mean normalized body weight (% of baseline), study day 51","[2]; DIO mice, BID oral (DA 23.1 mg/kg, DB 26.8 mg/kg), day 51",107.8 % of baseline
same,"Mean normalized body weight (% of baseline), study day 53","[2]; DIO mice, BID oral (DA 23.1 mg/kg, DB 26.8 mg/kg), day 53",107.4 % of baseline
same,"Mean normalized body weight (% of baseline), study day 56","[2]; DIO mice, BID oral (DA 23.1 mg/kg, DB 26.8 mg/kg), day 56",108.4 % of baseline
same,food consumption compared to vehicle-dosed mice,"[2]; DIO mice, BID oral, 56-day treatment","Lower food consumption was also seen on Days 0, 7, 28, 35, 42 and 49"
same,LD50 at 14 day,[3],784 mg/kg
same,MTD at 14 day,[3],360 mg/kg
same,Mortality rate,[4]; 120 mg/kg,0%
same,Mortality rate,[4]; 360 mg/kg,0%
same,Mortality rate,[4]; 1000 mg/kg,66.7%
same,Mortality rate,[4]; 2000 mg/kg,100%
same,No. of animals died within 24 h post dosing,"[4]; female, 120 mg/kg",0
same,No. of animals died within 24 h post dosing,"[4]; female, 360 mg/kg",0
same,No. of animals died within 24 h post dosing,"[4]; female, 1000 mg/kg",3
same,No. of animals died within 24 h post dosing,"[4]; female, 2000 mg/kg",3
same,No. of animals died within 24 h post dosing,"[4]; male, 120 mg/kg",0
same,No. of animals died within 24 h post dosing,"[4]; male, 360 mg/kg",0
same,No. of animals died within 24 h post dosing,"[4]; male, 1000 mg/kg",1
same,No. of animals died within 24 h post dosing,"[4]; male, 2000 mg/kg",3
same,activation of human TAS2Rs,[5],activates to varying degrees eight human TAS2Rs
same,gastric emptying rate,[6],significantly inhibited gastric emptying rate
same,body weight as compared to vehicle,[7],induced a decrease in body weight
same,food intake,[8],suppressed food intake
same,weight gain,[8],inhibited weight gain
